Experimental data reported in ChEMBL document CHEMBL1201861, “Genomics of Drug Sensitity in Cancer screening data, Wellcome Trust Sanger Institute”.
pIC50: −log10 of the molar value. Structures can show the parent of a compound that is named as a salt.

Tests used:
Experiment in all cases: cells
Type in all cases: functional, cell-based, Homo sapiens
COR-L88 = system: COR-L88;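 note: growth inhibition of COR-L88 cells, read out with a cell viability assay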
Description: SANGER: Inhibition of human COR-L88 cell growth in a cell viability assay.

CTV-1 = system: CTV-1;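 note: growth inhibition of the cell line, read out with a cell viability assay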
Description: SANGER: Inhibition of human CTV-1 cell growth in a cell viability assay.

D-247MG = details: Homo sapiens, D-247MG
Description: SANGER: Inhibition of human D-247MG cell growth in a cell viability assay.

DMS-79 = system: DMS-79;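 note: growth inhibition measured with a cell viability assay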
Description: SANGER: Inhibition of human DMS-79 cell growth in a cell viability assay.

DOHH-2 = system: DOHH-2;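 note: growth inhibition of human DOHH-2 cells, read out with a cell viability assay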
Description: SANGER: Inhibition of human DOHH-2 cell growth in a cell viability assay.

EKVX = system: EKVX;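 note: growth inhibition of human EKVX cells, read out with a cell viability assay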
Description: SANGER: Inhibition of human EKVX cell growth in a cell viability assay.

ES1 = system: ES1;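 note: growth inhibition of ES1 cells, read out with a cell viability assay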
Description: SANGER: Inhibition of human ES1 cell growth in a cell viability assay.

EW-24 = system: EW-24;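 note: human EW-24 cancer cell line, growth inhibition read out via a cell viability assay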
Description: SANGER: Inhibition of human EW-24 cell growth in a cell viability assay.

GB-1 = system: GB-1;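 note: growth of GB-1 cells judged by a viability assay, IC50 marks the concentration inhibiting growth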
Description: SANGER: Inhibition of human GB-1 cell growth in a cell viability assay.

HCC1187 = system: HCC1187;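 note: growth inhibition of HCC1187 cells, read out with a cell viability assay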
Description: SANGER: Inhibition of human HCC1187 cell growth in a cell viability assay.

HD-MY-Z = system: HD-MY-Z;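 note: growth inhibition of HD-MY-Z cells, read out with a cell viability assay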
Description: SANGER: Inhibition of human HD-MY-Z cell growth in a cell viability assay.

HT-144 = system: HT-144
Description: SANGER: Inhibition of human HT-144 cell growth in a cell viability assay.

IA-LM = system: IA-LM;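 note: cell viability assay measuring growth inhibition of human IA-LM cells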
Description: SANGER: Inhibition of human IA-LM cell growth in a cell viability assay.

IST-MEL1 = system: IST-MEL1;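 note: growth inhibition of the cell line, read out with a cell viability assay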
Description: SANGER: Inhibition of human IST-MEL1 cell growth in a cell viability assay.

KNS-81-FD = system: KNS-81-FD;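 note: growth inhibition of KNS-81-FD cells, read out with a cell viability assay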
Description: SANGER: Inhibition of human KNS-81-FD cell growth in a cell viability assay.

L-363 = system: L-363
Description: SANGER: Inhibition of human L-363 cell growth in a cell viability assay.

LU-139 = system: LU-139
Description: SANGER: Inhibition of human LU-139 cell growth in a cell viability assay.

MS-1 = system: MS-1;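 note: growth inhibition of MS-1 cells, read out by cell viability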
Description: SANGER: Inhibition of human MS-1 cell growth in a cell viability assay.

MSTO-211H = system: MSTO-211H
Description: SANGER: Inhibition of human MSTO-211H cell growth in a cell viability assay.

NB5 = system: NB5;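 note: growth inhibition of NB5 cells, read out as cell viability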
Description: SANGER: Inhibition of human NB5 cell growth in a cell viability assay.

NB69 = system: NB69;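 note: growth inhibition of NB69 cells, determined by a cell viability assay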
Description: SANGER: Inhibition of human NB69 cell growth in a cell viability assay.

NCI-H1304 = system: NCI-H1304;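 note: growth inhibition of the cancer cell line, measured in a cell viability assay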
Description: SANGER: Inhibition of human NCI-H1304 cell growth in a cell viability assay.

NCI-H209 = system: NCI-H209;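 note: growth inhibition of human NCI-H209 cells, measured by a cell viability assay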
Description: SANGER: Inhibition of human NCI-H209 cell growth in a cell viability assay.

NCI-H526 = system: NCI-H526;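 note: growth inhibition of the human NCI-H526 cell line, measured by a cell viability assay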
Description: SANGER: Inhibition of human NCI-H526 cell growth in a cell viability assay.

NCI-H69 = system: NCI-H69;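 note: growth inhibition of the cell line, read out with a cell viability assay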
Description: SANGER: Inhibition of human NCI-H69 cell growth in a cell viability assay.

NCI-H747 = system: NCI-H747;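 note: growth inhibition of human NCI-H747 cells, read out by a cell viability assay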
Description: SANGER: Inhibition of human NCI-H747 cell growth in a cell viability assay.

SNU-5 = system: SNU-5;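 note: cell viability readout used to measure growth inhibition in human NCI-SNU-5 cells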
Description: SANGER: Inhibition of human NCI-SNU-5 cell growth in a cell viability assay.

NTERA-2-cl-D1 = system: NTERA-2-cl-D1;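 note: inhibition of cell growth, measured with a cell viability assay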
Description: SANGER: Inhibition of human NTERA-S-cl-D1 cell growth in a cell viability assay.

OCUB-M = system: OCUB-M;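 note: growth inhibition of the cancer cell line, read out through a cell viability assay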
Description: SANGER: Inhibition of human OCUB-M cell growth in a cell viability assay.

SCC-15 = system: SCC-15;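 note: growth inhibition of SCC-15 cells, read out with a cell viability assay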
Description: SANGER: Inhibition of human SCC-15 cell growth in a cell viability assay.

SK-N-DZ = system: SK-N-DZ;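 note: growth inhibition of the cancer cell line, read out through a viability assay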
Description: SANGER: Inhibition of human SK-N-DZ cell growth in a cell viability assay.

SK-N-FI = system: SK-N-FI;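 note: cell viability assay measuring growth inhibition of human SK-N-FI cells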
Description: SANGER: Inhibition of human SK-N-FI cell growth in a cell viability assay.

SK-UT-1 = system: SK-UT-1;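 note: growth inhibition of SK-UT-1 cells, measured by a cell viability assay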
Description: SANGER: Inhibition of human SK-UT-1 cell growth in a cell viability assay.

A3-KAW = system: A3-KAW;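 note: growth inhibition of human A3-KAW cells, read out with a cell viability assay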
Description: SANGER: Inhibition of human A3-KAW cell growth in a cell viability assay.

AM-38 = system: AM-38;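 note: growth inhibition of AM-38 cells of human origin, read out by a cell viability assay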
Description: SANGER: Inhibition of human AM-38 cell growth in a cell viability assay.

ATN-1 = system: ATN-1;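 note: growth inhibition of human ATN-1 cells, read out with a cell viability assay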
Description: SANGER: Inhibition of human ATN-1 cell growth in a cell viability assay.

TGBC1TKB = system: TGBC1TKB;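 note: growth inhibition of TGBC1TKB cells, read out by a cell viability assay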
Description: SANGER: Inhibition of human TGBC1TKB cell growth in a cell viability assay.

UACC-257 = system: UACC-257
Description: SANGER: Inhibition of human UACC-257 cell growth in a cell viability assay.

VA-ES-BJ = system: VA-ES-BJ;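 note: growth inhibition of the VA-ES-BJ cell line, read out by a cell viability assay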
Description: SANGER: Inhibition of human VA-ES-BJ cell growth in a cell viability assay.

CP66-MEL = system: CP66-MEL;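 note: growth inhibition of CP66-MEL cells determined in a cell viability assay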
Description: SANGER: Inhibition of human CP66-MEL cell growth in a cell viability assay.

HCC2157 = system: HCC2157;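 note: growth inhibition of the cancer cell line, read out as cell viability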
Description: SANGER: Inhibition of human HCC2157 cell growth in a cell viability assay.

HEL = system: HEL;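 note: growth inhibition of HEL cells, read out with a cell viability assay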
Description: SANGER: Inhibition of human HEL cell growth in a cell viability assay.

HOP-62 = system: HOP-62;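 note: cell growth inhibition determined with a viability assay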
Description: SANGER: Inhibition of human HOP-62 cell growth in a cell viability assay.

NB12 = system: NB12;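 note: growth inhibition of human NB12 cells, read out by a cell viability assay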
Description: SANGER: Inhibition of human NB12 cell growth in a cell viability assay.

NB6 = system: NB6;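 note: growth inhibition of NB6 cells, read out by a cell viability assay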
Description: SANGER: Inhibition of human NB6 cell growth in a cell viability assay.

NCI-H1092 = system: NCI-H1092;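 note: cell growth inhibition measured with a cell viability assay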
Description: SANGER: Inhibition of human NCI-H1092 cell growth in a cell viability assay.

SW 962 = system: SW 962;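 note: growth inhibition of human SW962 cells, read out by a cell viability assay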
Description: SANGER: Inhibition of human SW962 cell growth in a cell viability assay.

C8166 = system: C8166;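 note: growth inhibition of human C8166 cells measured by a cell viability assay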
Description: SANGER: Inhibition of human C8166 cell growth in a cell viability assay.

TGW = system: TGW;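 note: growth inhibition of human TGW cells, read out with a cell viability assay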
Description: SANGER: Inhibition of human TGW cell growth in a cell viability assay.

Q: With CN(C)C(=N)NC(=N)N [METFORMIN] as the compound, how does the pIC50 (COR-L88; Homo sapiens, COR-L88) read?
A: 2.20

Q: And the pIC50 (CTV-1; Homo sapiens, CTV-1)?
A: 2.71

Q: And the pIC50 (D-247MG)?
A: < 1.70

Q: And the pIC50 (DMS-79; Homo sapiens, DMS-79)?
A: 2.22

Q: What about the pIC50 (DOHH-2; Homo sapiens, DOHH-2) of the same compound?
A: 2.12

Q: And the pIC50 (EKVX; Homo sapiens, EKVX)?
A: < 1.70

Q: And the pIC50 (ES1; Homo sapiens, ES1)?
A: < 1.70

Q: And the pIC50 (EW-24; Homo sapiens, EW-24)?
A: 2.02

Q: What about the pIC50 (GB-1; Homo sapiens, GB-1) of the same compound?
A: < 1.70

Q: What about the pIC50 (HCC1187; Homo sapiens, HCC1187) of the same compound?
A: 1.85

Q: And the pIC50 (HD-MY-Z; Homo sapiens, HD-MY-Z)?
A: < 1.70

Q: And the pIC50 (HT-144; Homo sapiens, HT-144)?
A: < 1.70

Q: And the pIC50 (IA-LM; Homo sapiens, IA-LM)?
A: < 1.70

Q: What about the pIC50 (IST-MEL1; Homo sapiens, IST-MEL1) of the same compound?
A: < 1.70

Q: What about the pIC50 (KNS-81-FD; Homo sapiens, KNS-81-FD) of the same compound?
A: 2.05

Q: And the pIC50 (L-363; Homo sapiens, L-363)?
A: 2.17

Q: What about the pIC50 (LU-139; Homo sapiens, LU-139) of the same compound?
A: < 1.70

Q: What about the pIC50 (MS-1; Homo sapiens, MS-1) of the same compound?
A: < 1.70

Q: And the pIC50 (MSTO-211H; Homo sapiens, MSTO-211H)?
A: < 1.70

Q: And the pIC50 (NB5; Homo sapiens, NB5)?
A: < 1.70

Q: And the pIC50 (NB69; Homo sapiens, NB69)?
A: < 1.70

Q: And the pIC50 (NCI-H1304; Homo sapiens, NCI-H1304)?
A: 1.81

Q: And the pIC50 (NCI-H209; Homo sapiens, NCI-H209)?
A: 3.03

Q: What about the pIC50 (NCI-H526; Homo sapiens, NCI-H526) of the same compound?
A: 1.79

Q: What about the pIC50 (NCI-H69; Homo sapiens, NCI-H69) of the same compound?
A: 2.07

Q: What about the pIC50 (NCI-H747; Homo sapiens, NCI-H747) of the same compound?
A: < 1.70

Q: And the pIC50 (SNU-5; Homo sapiens, SNU-5)?
A: 2.43

Q: What about the pIC50 (NTERA-2-cl-D1; Homo sapiens, NTERA-2-cl-D1) of the same compound?
A: 1.71

Q: And the pIC50 (OCUB-M; Homo sapiens, OCUB-M)?
A: 1.94

Q: What about the pIC50 (SCC-15; Homo sapiens, SCC-15) of the same compound?
A: < 1.70

Q: And the pIC50 (SK-N-DZ; Homo sapiens, SK-N-DZ)?
A: 1.88

Q: And the pIC50 (SK-N-FI; Homo sapiens, SK-N-FI)?
A: < 1.70

Q: What about the pIC50 (SK-UT-1; Homo sapiens, SK-UT-1) of the same compound?
A: < 1.70

Q: What about the pIC50 (A3-KAW; Homo sapiens, A3-KAW) of the same compound?
A: < 1.70

Q: What about the pIC50 (AM-38; Homo sapiens, AM-38) of the same compound?
A: < 1.70

Q: What about the pIC50 (ATN-1; Homo sapiens, ATN-1) of the same compound?
A: 2.06

Q: And the pIC50 (TGBC1TKB; Homo sapiens, TGBC1TKB)?
A: < 1.70

Q: What about the pIC50 (UACC-257; Homo sapiens, UACC-257) of the same compound?
A: 1.86

Q: What about the pIC50 (VA-ES-BJ; Homo sapiens, VA-ES-BJ) of the same compound?
A: 1.88

Q: COC1=CC(c2cc3ccccc3[nH]2)=N/C1=C\c1[nH]c(C)cc1C [OBATOCLAX MESYLATE] was tested. Which pIC50 (COR-L88; Homo sapiens, COR-L88) did it give?
A: < 4.80

Q: And the pIC50 (CP66-MEL; Homo sapiens, CP66-MEL)?
A: 6.06

Q: What about the pIC50 (CTV-1; Homo sapiens, CTV-1) of the same compound?
A: 7.12

Q: What about the pIC50 (DMS-79; Homo sapiens, DMS-79) of the same compound?
A: < 4.80

Q: What about the pIC50 (DOHH-2; Homo sapiens, DOHH-2) of the same compound?
A: > 7.20

Q: And the pIC50 (EKVX; Homo sapiens, EKVX)?
A: 5.78

Q: And the pIC50 (ES1; Homo sapiens, ES1)?
A: 7.31

Q: And the pIC50 (EW-24; Homo sapiens, EW-24)?
A: 6.47

Q: What about the pIC50 (GB-1; Homo sapiens, GB-1) of the same compound?
A: 6.78

Q: And the pIC50 (HCC1187; Homo sapiens, HCC1187)?
A: 5.77

Q: And the pIC50 (HCC2157; Homo sapiens, HCC2157)?
A: 5.94

Q: What about the pIC50 (HD-MY-Z; Homo sapiens, HD-MY-Z) of the same compound?
A: 4.83

Q: What about the pIC50 (HEL; Homo sapiens, HEL) of the same compound?
A: 6.81

Q: And the pIC50 (HOP-62; Homo sapiens, HOP-62)?
A: 7.08

Q: What about the pIC50 (HT-144; Homo sapiens, HT-144) of the same compound?
A: > 7.20

Q: And the pIC50 (IA-LM; Homo sapiens, IA-LM)?
A: 7.22

Q: And the pIC50 (IST-MEL1; Homo sapiens, IST-MEL1)?
A: > 7.20

Q: What about the pIC50 (KNS-81-FD; Homo sapiens, KNS-81-FD) of the same compound?
A: 6.44

Q: And the pIC50 (L-363; Homo sapiens, L-363)?
A: 7.33

Q: What about the pIC50 (LU-139; Homo sapiens, LU-139) of the same compound?
A: 5.22

Q: And the pIC50 (MS-1; Homo sapiens, MS-1)?
A: 5.89

Q: What about the pIC50 (MSTO-211H; Homo sapiens, MSTO-211H) of the same compound?
A: 5.32

Q: What about the pIC50 (NB12; Homo sapiens, NB12) of the same compound?
A: 6.14

Q: And the pIC50 (NB5; Homo sapiens, NB5)?
A: 5.85

Q: And the pIC50 (NB6; Homo sapiens, NB6)?
A: 5.35

Q: What about the pIC50 (NB69; Homo sapiens, NB69) of the same compound?
A: 7.81

Q: What about the pIC50 (NCI-H1092; Homo sapiens, NCI-H1092) of the same compound?
A: 5.51

Q: What about the pIC50 (NCI-H1304; Homo sapiens, NCI-H1304) of the same compound?
A: 5.79

Q: And the pIC50 (NCI-H209; Homo sapiens, NCI-H209)?
A: 5.43

Q: And the pIC50 (NCI-H526; Homo sapiens, NCI-H526)?
A: 5.58

Q: And the pIC50 (NCI-H69; Homo sapiens, NCI-H69)?
A: 5.33

Q: What about the pIC50 (NCI-H747; Homo sapiens, NCI-H747) of the same compound?
A: 6.84

Q: And the pIC50 (SNU-5; Homo sapiens, SNU-5)?
A: 6.07

Q: What about the pIC50 (NTERA-2-cl-D1; Homo sapiens, NTERA-2-cl-D1) of the same compound?
A: 6.98

Q: What about the pIC50 (OCUB-M; Homo sapiens, OCUB-M) of the same compound?
A: 6.65

Q: And the pIC50 (SCC-15; Homo sapiens, SCC-15)?
A: 7.31

Q: What about the pIC50 (SK-N-DZ; Homo sapiens, SK-N-DZ) of the same compound?
A: 6.07

Q: And the pIC50 (SK-N-FI; Homo sapiens, SK-N-FI)?
A: 4.83

Q: And the pIC50 (SK-UT-1; Homo sapiens, SK-UT-1)?
A: 6.87

Q: What about the pIC50 (SW 962; Homo sapiens, SW 962) of the same compound?
A: 7.18

Q: What about the pIC50 (A3-KAW; Homo sapiens, A3-KAW) of the same compound?
A: 7.07

Q: And the pIC50 (AM-38; Homo sapiens, AM-38)?
A: 6.72

Q: What about the pIC50 (ATN-1; Homo sapiens, ATN-1) of the same compound?
A: 6.78

Q: What about the pIC50 (C8166; Homo sapiens, C8166) of the same compound?
A: 6.32

Q: And the pIC50 (TGBC1TKB; Homo sapiens, TGBC1TKB)?
A: 6.21

Q: And the pIC50 (TGW; Homo sapiens, TGW)?
A: 7.76

Q: And the pIC50 (UACC-257; Homo sapiens, UACC-257)?
A: 6.23

Q: And the pIC50 (VA-ES-BJ; Homo sapiens, VA-ES-BJ)?
A: 6.15

Q: What does the source list for BLEOMYCIN?
A: pIC50 (COR-L88; cor-l88): 4.13; pIC50 (CP66-MEL; cp66-mel): 3.02; pIC50 (CTV-1; ctv-1): 5.31; pIC50 (DMS-79; dms-79): 3.49; pIC50 (DOHH-2; dohh-2): 5.28; pIC50 (EKVX; ekvx): 3.38; pIC50 (ES1; es1): 7.57; pIC50 (EW-24; ew-24): 4.02; pIC50 (GB-1; gb-1): 6.41; pIC50 (HCC1187; hcc1187): 4.48; pIC50 (HCC2157; hcc2157): 4.03; pIC50 (HD-MY-Z; hd-my-z): 6.25; pIC50 (HEL; hel): 4.97; pIC50 (HOP-62; hop-62): 8.38; pIC50 (HT-144; ht-144): 7.26; pIC50 (IA-LM; ia-lm): 5.47; pIC50 (IST-MEL1; ist-mel1): 6.55; pIC50 (KNS-81-FD; kns-81-fd): 3.18; pIC50 (L-363; l-363): 3.73; pIC50 (LU-139; lu-139): 2.46; pIC50 (MS-1; ms-1): 3.81; pIC50 (MSTO-211H; msto-211h): 3.83; pIC50 (NB12; nb12): 4.08; pIC50 (NB5; nb5): 5.17; pIC50 (NB6; nb6): 3.37; pIC50 (NB69; nb69): 6.04; pIC50 (NCI-H1092; nci-h1092): 3.80; pIC50 (NCI-H1304; nci-h1304): 5.39; pIC50 (NCI-H209; nci-h209): 4.46; pIC50 (NCI-H526; nci-h526): 5.89; pIC50 (NCI-H69; nci-h69): 3.98; pIC50 (NCI-H747; nci-h747): 5.92; pIC50 (SNU-5; snu-5): 6.19; pIC50 (NTERA-2-cl-D1; ntera-2-cl-d1): 9.86; pIC50 (OCUB-M; ocub-m): 5.74; pIC50 (SCC-15; scc-15): 4.56; pIC50 (SK-N-DZ; sk-n-dz): 3.77; pIC50 (SK-N-FI; sk-n-fi): 2.68; pIC50 (SK-UT-1; sk-ut-1): 8.20; pIC50 (SW 962; sw 962): 5.71; pIC50 (A3-KAW; a3-kaw): 6.14; pIC50 (AM-38; am-38): 5.31; pIC50 (ATN-1; atn-1): 4.72; pIC50 (C8166; c8166): 5.11; pIC50 (TGBC1TKB; tgbc1tkb): 4.13; pIC50 (TGW; tgw): 4.18; pIC50 (UACC-257; uacc-257): 3.63; pIC50 (VA-ES-BJ; va-es-bj): 6.58
